Test results reported in patent publication US8546377B2 (AbbVie Inc., priority 2009, dated 2013).
Like-named read-outs stand apart in the source and are kept apart here.

How the values were obtained:
5HT2C receptors = biological target: T1, 5HT2C receptors (Homo sapiens, UniProt P28335); assay: Human 5-HT2C functional assay in CHO-K1 cells (calcium flux, FLIPR); type: cell-based; parameters: expressed in transfected cells; host or cells: CHO-K1 cells
T1 sequence (P28335 33-458): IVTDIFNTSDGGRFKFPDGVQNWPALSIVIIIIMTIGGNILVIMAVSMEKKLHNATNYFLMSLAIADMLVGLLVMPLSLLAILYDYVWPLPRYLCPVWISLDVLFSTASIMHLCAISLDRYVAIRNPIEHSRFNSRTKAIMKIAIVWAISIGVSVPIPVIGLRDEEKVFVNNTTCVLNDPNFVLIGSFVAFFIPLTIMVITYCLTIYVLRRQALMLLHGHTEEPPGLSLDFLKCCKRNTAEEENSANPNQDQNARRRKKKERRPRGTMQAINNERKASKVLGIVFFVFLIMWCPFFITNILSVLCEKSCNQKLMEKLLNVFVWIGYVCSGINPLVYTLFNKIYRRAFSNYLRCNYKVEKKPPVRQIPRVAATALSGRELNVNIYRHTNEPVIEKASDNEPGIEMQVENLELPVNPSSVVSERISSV
Summary of the method: (§1)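 Frozen CHO-K1 cells over-expressing receptor, serum-starved overnight, loaded with Ca4 dye plus 2.5 mM probenecid for 60 min at room temperature. FLIPR fluorescence (ex 480/em 530 nm, 25° C) recorded 3 min after compound addition; 6-point 1:10 series from 10 μM, 0.2% DMSO. Response normalized to serotonin, 4-parameter fit gives EC50; Emax as % of serotonin.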

5HT2B receptors = biological target: T2, 5HT2B receptors (Homo sapiens, UniProt P41595); assay: Human 5-HT2B functional assay in CHO-K1 cells (calcium flux, FLIPR); type: cell-based
T2 construct: expressed in transfected cells; host or cells: CHO-K1 cells
T2 sequence (P41595 whole entry): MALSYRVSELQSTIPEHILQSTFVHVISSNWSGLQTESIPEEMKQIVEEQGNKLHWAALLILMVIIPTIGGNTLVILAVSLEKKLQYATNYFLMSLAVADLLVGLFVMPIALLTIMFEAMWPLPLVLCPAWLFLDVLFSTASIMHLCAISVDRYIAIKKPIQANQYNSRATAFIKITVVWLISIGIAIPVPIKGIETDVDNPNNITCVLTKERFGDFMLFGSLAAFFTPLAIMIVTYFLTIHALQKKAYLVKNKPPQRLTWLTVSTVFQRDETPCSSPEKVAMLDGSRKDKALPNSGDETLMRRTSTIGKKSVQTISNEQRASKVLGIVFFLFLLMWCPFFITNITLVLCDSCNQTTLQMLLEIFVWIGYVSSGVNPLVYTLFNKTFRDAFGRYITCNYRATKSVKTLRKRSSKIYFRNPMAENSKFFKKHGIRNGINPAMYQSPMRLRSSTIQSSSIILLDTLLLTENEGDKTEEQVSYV
Summary of the method: as §1

[1] = CHO-K1 cells over-expressing 5HT2C, calcium flux, read-out: EC50 (μM), 5-HT2c Agonist Activity
[2] = CHO-K1 cells, percentage relative to the effect of serotonin, read-out: Emax (%), 5-HT2c Agonist Activity
[3] = CHO-K1 cells over-expressing 5HT2B, calcium flux, read-out: EC50 (μM), 5-HT2B Agonist Activity
[4] = CHO-K1 cells, percentage relative to the effect of serotonin, read-out: Emax (%), 5-HT2B Agonist Activity
[5] = CHO-K1, read-out: Emax (%), 5-HT2c Agonist Activity, CHO-K1 cells, percentage relative to the effect of serotonin
[6] = CHO-K1, read-out: Emax (%), 5-HT2B Agonist Activity
[7] = CHO-K1, read-out: Emax (%), 5-HT2c Agonist Activity

| Compound | EC50 (5HT2C receptors; [1]) | Emax (5HT2C receptors; [2]) | EC50 (5HT2B receptors; [3]) | EC50 (5HT2C receptors) | Emax (5HT2C receptors; [5]) | EC50 (5HT2B receptors) | other results |
| --- | --- | --- | --- | --- | --- | --- | --- |
| Clc1cc(Cl)c2c(c1)N1CCNC[C@@H]1CCO2 [Example 225, (4aS)-8,10-dichloro-2,3,4,4a,5,6-hexahydro-1H-pyrazino[2,1-d][1,5]benzoxazepine] |  |  |  | 0.01 µM | 70% | 0.04 µM | Emax (5HT2B receptors; [6]): 50% |
| Cc1cc(Cl)cc2c1OCC[C@H]1CNCCN21 [Example 227, (4aS)-10-chloro-8-methyl-2,3,4,4a,5,6-hexahydro-1H-pyrazino[2,1-d][1,5]benzoxazepine] |  |  |  | 0.008 µM | 85% | 0.05 µM | Emax (5HT2B receptors; [6]): 20% |
| COc1ccc2c(c1)OCC[C@H]1CN(C)CCN21 [Example 232, (4aS)-9-methoxy-3-methyl-2,3,4,4a,5,6-hexahydro-1H-pyrazino[2,1-d][1,5]benzoxazepine] |  |  |  | 0.05 µM | 50% | > 10 µM |  |
| CC(O)c1ccc(-c2cccc3c2OCC[C@H]2CNCCN32)cc1 (stereo partly drawn) [Example 234, 1-{4-[(4aS)-2,3,4,4a,5,6-hexahydro-1H-pyrazino[2,1-d][1,5]benzoxazepin-8-yl]phenyl}ethanol] | 0.01 µM | 105% | 0.3 µM |  |  |  | Emax (5HT2B receptors; [4]): 10% |
| CCN1CCN2c3ccccc3OCC[C@H]2C1 [Example 235, (4aS)-3-ethyl-2,3,4,4a,5,6-hexahydro-1H-pyrazino[2,1-d][1,5]benzoxazepine] |  |  |  | 0.02 µM | 100% | > 10 µM |  |
| Brc1cccc2c1OCC[C@H]1CNCCN21 [Example 236, (4aS)-8-bromo-2,3,4,4a,5,6-hexahydro-1H-pyrazino[2,1-d][1,5]benzoxazepine] |  |  |  | 0.002 µM | 100% | 0.01 µM | Emax (5HT2B receptors; [6]): 10% |
| CCc1cccc2c1OCC[C@H]1CNCCN21 [Example 237, (4aS)-8-ethyl-2,3,4,4a,5,6-hexahydro-1H-pyrazino[2,1-d][1,5]benzoxazepine] |  |  |  | 0.005 µM | 90% | > 10 µM |  |
| COc1cccc2c1OCC[C@H]1CNCCN21 [Example 241, (4aS)-8-methoxy-2,3,4,4a,5,6-hexahydro-1H-pyrazino[2,1-d][1,5]benzoxazepine] |  |  |  | 0.02 µM | 90% | > 10 µM |  |
| Cc1cccc2c1OCC[C@H]1CN(C)CCN21 [Example 242, (4aS)-3,8-dimethyl-2,3,4,4a,5,6-hexahydro-1H-pyrazino[2,1-d][1,5]benzoxazepine] |  |  |  | 0.002 µM | 80% | > 10 µM |  |
| COc1ccc2c(c1)OCC[C@H]1CNCCN21 [Example 243, (4aS)-9-methoxy-2,3,4,4a,5,6-hexahydro-1H-pyrazino[2,1-d][1,5]benzoxazepine] |  |  |  | 0.05 µM |  | > 10 µM | Emax (%), 5-HT2c Agonist Activity (5HT2C receptors; CHO-K1 cells, percentage relative to the effect of serotonin): 55% |
| Cc1c(F)ccc2c1OCC[C@H]1CNCCN21 [Example 244] |  |  |  | 0.0004 µM | 95% | 0.03 µM | Emax (5HT2B receptors; [6]): 15% |
| c1cc(-c2ccncc2)c2c(c1)N1CCNC[C@@H]1CCO2 [Example 247, (4aS)-8-(pyridin-4-yl)-2,3,4,4a,5,6-hexahydro-1H-pyrazino[2,1-d][1,5]benzoxazepine] |  |  |  | 0.007 µM | 85% | > 10 µM |  |
| c1cncc(-c2cccc3c2OCC[C@H]2CNCCN32)c1 [Example 248, (4aS)-8-(pyridin-3-yl)-2,3,4,4a,5,6-hexahydro-1H-pyrazino[2,1-d][1,5]benzoxazepine] |  |  |  | 0.0007 µM | 85% | > 10 µM |  |
| [2H]c1cccc2c1OCC[C@H]1CNCCN21 [Example 254, (4aS)-(8-^2H)-2,3,4,4a,5,6-hexahydro-1H-pyrazino[2,1-d][1,5]benzoxazepine] |  |  |  | 0.005 µM | 115% | 0.09 µM | Emax (5HT2B receptors; [6]): 35% |

Now from value to molecule, other results behind:

| EC50 (5HT2C receptors; [1]) | Emax (5HT2C receptors; [2]) | EC50 (5HT2B receptors; [3]) | Compound | EC50 (5HT2C receptors) | Emax (5HT2C receptors; [5]) | EC50 (5HT2B receptors) | other results |
| --- | --- | --- | --- | --- | --- | --- | --- |
| 0.1 µM | 50% | > 10 µM | CN1CCN2c3cc(-c4cccc(S(C)(=O)=O)c4)ccc3OCC[C@H]2C1 [Example 221, (4aS)-3-methyl-10-[3-(methylsulfonyl)phenyl]-2,3,4,4a,5,6-hexahydro-1H-pyrazino[2,1-d][1,5]benzoxazepine] |  |  |  |  |
| 0.0008 µM | 100% | 0.4 µM | CC(O)c1cccc(-c2ccc3c(c2)N2CCNC[C@@H]2CCO3)c1 (stereo partly drawn) [Example 222, 1-{3-[(4aS)-2,3,4,4a,5,6-hexahydro-1H-pyrazino[2,1-d][1,5]benzoxazepin-10-yl]phenyl}ethanol] |  |  |  | Emax (5HT2B receptors; [4]): 50% |
| 0.02 µM | 100% | > 10 µM | c1ccc(-c2cccc3c2OCC[C@H]2CNCCN32)cc1 [Example 223, (4aS)-8-phenyl-2,3,4,4a,5,6-hexahydro-1H-pyrazino[2,1-d][1,5]benzoxazepine] |  |  |  |  |
| 0.1 µM | 85% | 0.4 µM | c1cc(-c2ccc3c(c2)N2CCNC[C@@H]2CCO3)co1 [Example 224, (4aS)-10-(3-furyl)-2,3,4,4a,5,6-hexahydro-1H-pyrazino[2,1-d][1,5]benzoxazepine] |  |  |  | Emax (5HT2B receptors; [4]): 40% |
| 0.009 µM | 100% | > 10 µM | CC(O)c1ccc(-c2ccc3c(c2)OCC[C@H]2CNCCN32)cc1 (stereo partly drawn) [Example 228, 1-{4-[(4aS)-2,3,4,4a,5,6-hexahydro-1H-pyrazino[2,1-d][1,5]benzoxazepin-9-yl]phenyl}ethanol] |  |  |  |  |
| 0.02 µM | 100% | > 10 µM | CC(O)c1cccc(-c2ccc3c(c2)OCC[C@H]2CNCCN32)c1 (stereo partly drawn) [Example 229, 1-{3-[(4aS)-2,3,4,4a,5,6-hexahydro-1H-pyrazino[2,1-d][1,5]benzoxazepin-9-yl]phenyl}ethanol] |  |  |  |  |
| 0.07 µM | 90% | > 10 µM | CS(=O)(=O)c1ccc(-c2ccc3c(c2)OCC[C@H]2CNCCN32)cc1 [Example 230, (4aS)-9-[4-(methylsulfonyl)phenyl]-2,3,4,4a,5,6-hexahydro-1H-pyrazino[2,1-d][1,5]benzoxazepine] |  |  |  |  |
| 0.003 µM | 105% | > 10 µM | CC(O)c1cccc(-c2cccc3c2OCC[C@H]2CNCCN32)c1 (stereo partly drawn) [Example 233, 1-{3-[(4aS)-2,3,4,4a,5,6-hexahydro-1H-pyrazino[2,1-d][1,5]benzoxazepin-8-yl]phenyl}ethanol] |  |  |  |  |
| 0.3 µM | 90% | > 10 µM | CS(=O)(=O)c1cccc(-c2ccc3c(c2)OCC[C@H]2CNCCN32)c1 [Example 238, (4aS)-9-[3-(methylsulfonyl)phenyl]-2,3,4,4a,5,6-hexahydro-1H-pyrazino[2,1-d][1,5]benzoxazepine] |  |  |  |  |
| 0.04 µM | 105% | > 10 µM | CS(=O)(=O)c1cccc(-c2cccc3c2OCC[C@H]2CNCCN32)c1 [Example 239, (4aS)-8-[3-(methylsulfonyl)phenyl]-2,3,4,4a,5,6-hexahydro-1H-pyrazino[2,1-d][1,5]benzoxazepine] |  |  |  |  |
| 0.04 µM |  | 1 µM | FCCN1CCN2c3ccccc3OCC[C@H]2C1 [Example 240, (4aS)-3-(2-fluoroethyl)-2,3,4,4a,5,6-hexahydro-1H-pyrazino[2,1-d][1,5]benzoxazepine] |  |  |  | Emax (5HT2C receptors; [7]): 90%; Emax (5HT2B receptors; [6]): 10% |
| 0.009 µM |  | 0.2 µM | FCCN1CCN2c3cccc(F)c3OCC[C@H]2C1 [Example 245, (4aS)-8-fluoro-3-(2-fluoroethyl)-2,3,4,4a,5,6-hexahydro-1H-pyrazino[2,1-d][1,5]benzoxazepine] |  |  |  | Emax (5HT2C receptors; [7]): 95%; Emax (5HT2B receptors; [6]): 20% |
| 0.007 µM |  | > 10 µM | Cc1cccc2c1OCC[C@H]1CN(CCF)CCN21 [Example 246, (4aS)-3-(2-fluoroethyl)-8-methyl-2,3,4,4a,5,6-hexahydro-1H-pyrazino[2,1-d][1,5]benzoxazepine] |  |  |  | Emax (5HT2C receptors; [7]): 95% |
| 0.0001 µM | 75% | > 10 µM | c1csc(-c2cccc3c2OCC[C@H]2CNCCN32)c1 [Example 249, (4aS)-8-(2-thienyl)-2,3,4,4a,5,6-hexahydro-1H-pyrazino[2,1-d][1,5]benzoxazepine] |  |  |  |  |
| 0.0001 µM | 95% | > 10 µM | c1cc(-c2ccsc2)c2c(c1)N1CCNC[C@@H]1CCO2 [Example 250, (4aS)-8-(3-thienyl)-2,3,4,4a,5,6-hexahydro-1H-pyrazino[2,1-d][1,5]benzoxazepine] |  |  |  |  |
| 0.0001 µM | 90% | > 10 µM | c1coc(-c2cccc3c2OCC[C@H]2CNCCN32)c1 [Example 251, (4aS)-8-(2-furyl)-2,3,4,4a,5,6-hexahydro-1H-pyrazino[2,1-d][1,5]benzoxazepine] |  |  |  |  |
